Reference: patent US20180249709A1, “HERBICIDE COMPOSITIONS AND METHODS FOR CONTROLLING GROWTH OF PLANTS OF THE BUCKTHORN FAMILY” (priority 2016, published 2018)
Entries after “also recorded” stand apart in the source; their conditions may differ.

Tests used:
Buckthorn seeds = assay: Seed germination of Buckthorn seeds on filter paper in Petri plates; type: in vivo
Procedure: Juglone was purchased from Sigma Aldrich and diluted in sterile water to a 10^−3 M stock solution for 24 hours at 40° C., then further diluted to obtain 10^−4, 10^−5 and 10^−6 M solutions. Seeds were previously collected from 3 different sites (Site 1: Iroquois Shoreline Woods Park in Oakville, Ontario, Canada; Site 2: Ignatius Jesuit Centre in Guelph, Ontario, Canada, and Site 3: Snyder Flats Conservation Area in Bloomingdale, Ontario, Canada) and then placed into cold stratification. For this experiment, seeds were removed from 40 day cold stratification and surface sterilization was done for 30 s in 3% hydrogen peroxide followed by two one minute sterile water rinses. Sheets of 90 mm filter paper were placed on the bottom of Petri plates, followed by 15 seeds, and then topped with another sheet of filter paper. A pipette then dispensed 2 ml of treatment or control onto each plate directly onto the top filter paper, thereby wetting the seeds and bottom filter paper as well. Five reps (plates) were done for each site at each treatment. Plates were then placed into Ziploc bags (to maintain humidity) and kept at 24° C. in the dark. Plates were checked every day for germination (i.e. emergence of the radicle). The number of germinated seeds per plate was recorded daily. Using Microsoft Excel, a graph was created to show the average number of germinated seeds per group with standard error. Statistics were done using JMP statistical software.

Buckthorn seed radicles = assay: Radicle elongation of germinated Buckthorn seeds over 7 days; type: in vivo; details: for radicle growth between treatments of various concentrations: MANOVA repeated measures
Procedure: From the seed germination study (above), the first five (5) germinated Buckthorn seeds from each group (same treatment, same site) were set aside for radicle elongation measurements (see FIG. 6). These five were placed together in new Petri plates between two new filter papers dosed with treatment (i.e. same filter setup & treatment as germination study). For each of the 75 germinated seeds (5×15 groups), the initial length of the emerged radicle was measured. The length of the radicle was then re-measured daily for a total of 7 days. […] Therefore, on Day 7 all radicles were also sacrificed and scanned on an Epson® flatbed scanner then analyzed off-label by WinRhizo™ software, which measured the full length as “Brother 1” of the inputted “root”. Using Microsoft Excel, a graph was created to show the average length of radicle 7 days after emergence with standard error, when measured by hand. WinRhizo Day 7 measurements were compared to hand-measured Day 7 measurements to check for accuracy. Another graph was created to show the average growth of the radicle over time. Statistics were done using JMP™ statistical software.

With `O=C1C=CC(=O)c2c(O)cccc21` [Juglone, 5-hydroxy-1,4-naphthalenedione] the “percentage of Buckthorn seeds that germinated, treatment vs control” value (Buckthorn seeds; 10^-5 M Juglone) was “consistently significantly lower”, the “percentage of Buckthorn seeds that germinated, treatment vs control” value (Buckthorn seeds; 10^-6 M Juglone) was “consistently significantly lower; also recorded: significantly effective in preventing seed germination” and the “overall effect on germination, difference between the treatments” value (Buckthorn seeds; Day 12, Least Squares Model, control and 10^-3 to 10^-6 M Juglone, F(4,64)=6.2, p=0.003) was “significant difference”. For the same compound, the “percentage of Buckthorn seeds that germinated, trend with concentration” value (Buckthorn seeds; Juglone concentration increased above 10^-5 M) was “appeared to increase”, the “colour / appearance of radicles vs control” value (Buckthorn seed radicles; 10^-3 M Juglone, Day 7) was “darker brown/black; also recorded: possible damaging effect” and the radicle elongation (Buckthorn seed radicles; 10^-3 M Juglone, Ignatius Jesuit Centre site, MANOVA, hand-measured) was “limited radicle elongation significantly”. The “growth of radicles vs controls” value (Buckthorn seed radicles; 10^-3 M Juglone, all three sites, seven days, T-tests) was “significantly reduced growth; also recorded: significantly reduced radicle elongation”, the “growth of radicles vs controls” value (Buckthorn seed radicles; 10^-4 M Juglone, Iroquois Shoreline Woods Park site and Snyder Flats Conservation Area site only, T-tests) was “significantly reduced growth” and the “radicle growth among the treatments (net WinRhizo values)” value (Buckthorn seed radicles; ANOVA 2-way with replication, p=0.0005) was “significant difference in growth”. The “radicle growth between treatments of various concentrations” value (“radicle growth between treatments” for short) (Buckthorn seed radicles; Ignatius Jesuit Centre site, hand-measured, F(4,19)=0.73, p=0.0264) was “significant difference”, the “radicle growth between treatments” value (Buckthorn seed radicles; Iroquois Shoreline Woods Park site, hand-measured, F(4,20)=0.38, p=0.1485) was “no significant difference” and the “radicle growth between treatments” value (Buckthorn seed radicles; Snyder Flats Conservation Area site, hand-measured, F(4,19)=0.17, p=0.5339) was “no significant difference”. For the same compound, the “growth of radicles vs controls” value (Buckthorn seed radicles; more dilute concentrations (than 10^-4 M), seed from any site) was “Growth reduction was not achieved”.
